Source: patent EP0082668A1, “5-(2-Halogenovinyl)-2'-deoxyuridine derivatives, processes for their preparation, pharmaceutical compositions containing them and their use in treating viral infections” (BEECHAM GROUP PLC, priority 1981, dated 1983)
“And” between values parts separate entries of the source, which are not always exact repeats. Equal values may be shown once. Read-outs that look alike come from different tables or passages of the source.

Assays:
[1] = test system: herpes simplex type 1 virus (HFEM strain); test: Plaque reduction test in Vero cells infected with herpes simplex type 1 virus; assay type: cell-based
Experimental: (§1) Vero (African Green Monkey Kidney) cells were grown to confluence in 6 well multidishes, each well being 3.5 cm in diameter. The cells were incubated with herpes simplex type 1 virus (HFEM strain) and overlaid with 0.5 mL of 0.9% agarose (w/v) in maintenance medium containing the test compound at a range of concentrations from 100 pg/mL in half-log dilution steps. The virus infected cultures were then incubated at 37°C for 6 days before fixing in 4% formaldehyde solution and staining with carbolfuchsin. The dishes were then examined to find the concentration of test compound causing a 50% reduction in the number of virus plaques formed (PDD50 value) and the minimum concentration of test compound which killed the cell monolayer, leaving a clear zone devoid of cells and virus plaques (MTD).

[2] = Minimum concentration killing the cell monolayer (MTD), read in the plaque reduction test; assay type: cell-based, African Green Monkey; settings: monkey, vero cells; minimum concentration which killed the cell monolayer; virus infected Vero cultures, 6 days at 37°C
Experimental: as §1

[3] = Human alphaherpesvirus 1, 144 h, concentration causing a 50% reduction in the number of virus plaques, Vero cells, HFEM strain, 6 days at 37°C, molar, read-out: PDD50 (the source's name)
[4] = Human alphaherpesvirus 1, 144 h, concentration causing a 50% reduction in the number of virus plaques, Vero cells, HFEM strain, 6 days at 37°C, read-out: PDD50 (the source's name)
[5] = Human alphaherpesvirus 1, Vero, 144 h, read-out: PDD50

In the case of O=C(OC[C@H]1O[C@@H](n2cc(/C=C/Br)c(=O)[nH]c2=O)C[C@@H]1O)c1ccc(Cl)cc1 [Example 18, E-5-(2-Bromovinyl)-5'-0-p-chlorobenzoyl-2'-deoxyuridine], the IC50 [1, 3] is reported as 1780 nM, the IC50 [1, 4] is reported as 0.84 µg/mL and the MCC at 144 h [2] is reported as > 100 µg/mL.

With O=C(OC[C@H]1O[C@@H](n2cc(/C=C/Br)c(=O)[nH]c2=O)C[C@@H]1O)c1ccc(Cl)c(Cl)c1 [Example 35, E-5-(2-Bromovinyl)-5' -O-(3 ,4-dichlorobenzoyl)-2'-deoxyuridine] the IC50 [1, 3] was 2800 nM, the IC50 [1, 4] was 1.4 µg/mL and the MCC at 144 h [2] was > 100 µg/mL.

In the case of O=C(OC[C@H]1O[C@@H](n2cc(/C=C/Br)c(=O)[nH]c2=O)C[C@@H]1OC(=O)c1ccc(Cl)c(Cl)c1)c1ccc(Cl)c(Cl)c1 [Example 33, E-5-(2-bromovinyl)-3',5'-di-O-(3,4-dichlorobenzoyl)-2'-deoxyuridine], the IC50 [1, 3] is reported as 147000 nM, the IC50 [1, 4] is reported as 100 µg/mL and the MCC at 144 h [2] is reported as > 100 µg/mL.

For O=C(OC[C@H]1O[C@@H](n2cc(/C=C/Br)c(=O)[nH]c2=O)C[C@@H]1O)c1ccc([N+](=O)[O-])cc1 [Example 32, E-5-(2-Bromovinyl)-5' -O-(4-nitrobenzoyl)-2'-deoxyuridine], the IC50 [1, 3] was 2000 nM, the IC50 [1, 4] was 0.95 µg/mL and the MCC at 144 h [2] was > 100 µg/mL.

Work on COc1ccc(C(=O)OC[C@H]2O[C@@H](n3cc(/C=C/Br)c(=O)[nH]c3=O)C[C@@H]2O)cc1 [Example 19, E-5-(2-Bromovinyl)-5'-p-methoxybenzoyl-2'-deoxyuridine] yielded an IC50 [1, 3] of 13500 nM, an IC50 [1, 4] of 6.3 µg/mL and an MCC at 144 h [2] of 100 µg/mL.

In the case of COc1ccc(C(=O)n2c(=O)c(/C=C/Br)cn([C@H]3C[C@H](O)[C@@H](CO)O3)c2=O)cc1 [Example 21, E-5-(2-Bromovinyl)-3-N-p-methoxybenzoyl-2'-deoxyuridine], the IC50 [1, 3] is reported as 540 nM, the IC50 [1, 4] is reported as 0.25 µg/mL and the MCC at 144 h [2] is reported as > 100 µg/mL.

For O=C(c1ccccc1)n1c(=O)c(/C=C/Br)cn([C@H]2C[C@H](O)[C@@H](CO)O2)c1=O [Example 12, 3-N-Benzoyl-E-5-(2-bromovinyl)-2'-deoxyuridine], the IC50 [1, 3] was 530 nM, the IC50 [1, 4] was 0.23 µg/mL and the MCC at 144 h [2] was 100 µg/mL.

With O=C(O[C@H]1C[C@H](n2cc(/C=C/Br)c(=O)[nH]c2=O)O[C@@H]1CO)c1ccc(Cl)c(Cl)c1 [Example 34, E-5-(2-bromovinyl)-3'-O-(3,4-dichlorobenzoyl)-2'-deoxyuridine] the IC50 [1, 3] was 2300 nM, the IC50 [1, 4] was 1.2 µg/mL and the MCC at 144 h [2] was > 100 µg/mL.

In the case of O=C(c1cccc(Cl)c1)n1c(=O)c(/C=C/Br)cn([C@H]2C[C@H](O)[C@@H](CO)O2)c1=O [Example 26, E-5-(2-Bromovinyl)-3-N-(3-chlorobenzoyl)-2^1-deoxyuridine], the IC50 [1, 3] is reported as 530 nM, the IC50 [1, 4] is reported as 0.25 µg/mL and the MCC at 144 h [2] is reported as > 100 µg/mL.

For CCCN(CCC)S(=O)(=O)c1ccc(C(=O)n2c(=O)c(/C=C/Br)cn([C@H]3C[C@H](O)[C@@H](CO)O3)c2=O)cc1 [Example 30, E-5-(2-Bromovinyl)-3-[4-(N,N-di-n-propylsulphamoyl)benzoyl]-2'-deoxyuridine], the IC50 [1, 3] was 180 nM, the IC50 [1, 4] was 0.11 µg/mL and the MCC at 144 h [2] was > 100 µg/mL.

With O=C(C1CCCCC1)n1c(=O)c(/C=C/Br)cn([C@H]2C[C@H](O)[C@@H](CO)O2)c1=O [Example 25, E-5-(2-Bromovinyl)-3-N-cyclohexanecarbonyl-2^1-deoxyuridine] the IC50 [1, 3] was 720 nM, the IC50 [1, 4] was 0.32 µg/mL and the MCC at 144 h [2] was > 100 µg/mL.

With O=C(OC[C@H]1O[C@@H](n2cc(/C=C/Br)c(=O)[nH]c2=O)C[C@@H]1OC(=O)c1ccc([N+](=O)[O-])cc1)c1ccc([N+](=O)[O-])cc1 [Example 31, E-5-(2-bromovinyl)-3',5'-di-O(4-nitrobenzoyl)-2-deoxy-uridine] the IC50 [1, 5] was 20 µg/mL and 32 µM and the MCC at 144 h [2] was > 100 µg/mL.

In the case of Cc1ccc(C(=O)OC[C@H]2O[C@@H](n3cc(/C=C/Br)c(=O)[nH]c3=O)C[C@@H]2O)cc1 [Example 38, E-5-(2-Bromovinyl)-5'-O-(4-methylbenzoyl)-2' -deoxyuridine], the IC50 [1, 3] is reported as 1700 nM, the IC50 [1, 4] is reported as 0.78 µg/mL and the MCC at 144 h [2] is reported as > 100 µg/mL.

With CN(C)c1ccc(C(=O)O[C@H]2C[C@H](n3cc(/C=C/Br)c(=O)n(C(=O)c4ccc(N(C)C)cc4)c3=O)O[C@@H]2CO)cc1 [Example 48, E-5-(2-Bromovinyl)-3-N-(p-dimethylaminobenzoyl)-3'-O-(p-dimethylaminobenzoyl)-2'-deoxyuridine] the IC50 [1, 3] was 940 nM, the IC50 [1, 4] was 0.47 µg/mL and the MCC at 144 h [2] was > 100 µg/mL.

For O=C(OC[C@H]1O[C@@H](n2cc(/C=C/Br)c(=O)[nH]c2=O)C[C@@H]1O)c1ccccc1 [Example 3, 5'-O-benzoyl-E-5-(2-bromovinyl)-2'-deoxyuridine], the IC50 [1, 3] was 3700 nM, the IC50 [1, 4] was 1.7 µg/mL and the MCC at 144 h [2] was > 100 µg/mL.

Compound O=C(O[C@H]1C[C@H](n2cc(/C=C/Br)c(=O)n(C(=O)c3ccccc3)c2=O)O[C@@H]1CO)c1ccccc1 [Example 10, 3-N-Benzoyl-3'-O-benzoyl-E-5-(2-bromovinyl)-2'-deoxyuridine] has an IC50 [1, 3] of 3800 nM, an IC50 [1, 4] of 2.1 µg/mL and an MCC at 144 h [2] of 100 µg/mL.

With O=C(O[C@H]1C[C@H](n2cc(/C=C/Br)c(=O)[nH]c2=O)O[C@@H]1CO)c1ccccc1 [Example 11, 3'-O-Benzoyl-E-5-(2-bromovinyl)-2'-deoxyuridine] the IC50 [1, 3] was 3700 nM, the IC50 [1, 4] was 1.6 µg/mL and the MCC at 144 h [2] was > 100 µg/mL.

With O=C(OC[C@H]1O[C@@H](n2cc(/C=C/Br)c(=O)[nH]c2=O)C[C@@H]1OC(=O)c1ccc(Cl)cc1)c1ccc(Cl)cc1 [Example 15, E-5-(2-Bromovinyl)-3',5'-di-O-p-chlorobenzoyl-2'-deoxyuridine] the IC50 [1, 3] was 121000 nM, the IC50 [1, 4] was 74 µg/mL and the MCC at 144 h [2] was > 100 µg/mL.

For C[Si](C)(C)OC[C@H]1O[C@@H](n2cc(/C=C/Br)c(=O)[nH]c2=O)C[C@@H]1O[Si](C)(C)C [Example 22, E-5-(2-Bromovinyl)-3',5'-bis-O-trimethylsilyl-2'-deoxyuridine], the IC50 [1, 5] was 0.24 µg/mL and 500 nM and the MCC at 144 h [2] was > 100 µg/mL.

With CC(C)(C)C(=O)n1c(=O)c(/C=C/Br)cn([C@H]2C[C@H](O)[C@@H](CO)O2)c1=O [Example 24, E-5-(2-Bromovinyl)-3-N-pivaloyl-2'-deoxyuridine] the IC50 [1, 3] was 1100 nM, the IC50 [1, 4] was 0.46 µg/mL and the MCC at 144 h [2] was > 100 µg/mL.

In the case of O=C(OC[C@H]1O[C@@H](n2cc(/C=C/Br)c(=O)[nH]c2=O)C[C@@H]1OC(=O)c1ccccc1)c1ccccc1 [Example 2, E-5-(2-bromovinyl)-3',5'-di-O-benzoyl-2'-deoxyuridine], the IC50 [1, 3] is reported as 100000 nM, the IC50 [1, 4] is reported as 54 µg/mL and the MCC at 144 h [2] is reported as > 100 µg/mL.

For Cc1ccc(C(=O)O[C@H]2C[C@H](n3cc(/C=C/Br)c(=O)[nH]c3=O)O[C@@H]2CO)cc1 [Example 37, E-5-(2-bromovinyl)-3'-O-(4-methylbenzoyl)-2'-deoxyuridine], the IC50 [1, 3] was 1400 nM, the IC50 [1, 4] was 0.63 µg/mL and the MCC at 144 h [2] was > 100 µg/mL.

For O=C(c1ccc(Cl)cc1)n1c(=O)c(/C=C/Br)cn([C@H]2C[C@H](O)[C@@H](CO)O2)c1=O [Example 20, E-5-(2-Bromovinyl)-3-N-p-chlorobenzoyl-2'-deoxyuridine], the IC50 [1, 3] was 250 nM, the IC50 [1, 4] was 0.12 µg/mL and the MCC at 144 h [2] was > 100 µg/mL.

For CCCN(CCC)S(=O)(=O)c1ccc(C(=O)OC[C@H]2O[C@@H](n3cc(/C=C/Br)c(=O)[nH]c3=O)C[C@@H]2O)cc1 [Example 29, E-5-(2-Bromovinyl)-5'-p-(dipropylsulphamoyl)benzoyl-2'-deoxyuridine], the IC50 [1, 3] was 1870 nM, the IC50 [1, 4] was 1.12 µg/mL and the MCC at 144 h [2] was > 100 µg/mL.

With Cc1ccccc1C(=O)O[C@H]1C[C@H](n2cc(/C=C/Br)c(=O)n(C(=O)c3ccccc3C)c2=O)O[C@@H]1CO [Example 49] the IC50 [1, 3] was 1100 nM, the IC50 [1, 4] was 0.55 µg/mL and the MCC at 144 h [2] was 100 µg/mL.

In the case of CN(C)c1ccc(C(=O)O[C@H]2C[C@H](n3cc(/C=C/Br)c(=O)[nH]c3=O)O[C@@H]2CO)cc1 [Example 42, E-5-{2-bromovinyl)-3'-O-(4-N,N-dimethylaminobenzoyl)-2'-deoxyuridine], the IC50 [1, 3] is reported as 1400 nM, the IC50 [1, 4] is reported as 0.63 µg/mL and the MCC at 144 h [2] is reported as > 100 µg/mL.

In the case of CCCCc1ccc(C(=O)OC[C@H]2O[C@@H](n3cc(/C=C/Br)c(=O)[nH]c3=O)C[C@@H]2O)cc1 [Example 40, E-5-(2-bromovinyl)-5'-0-(4-n-butylbenzoyl)-2'-deoxyuridine], the IC50 [1, 3] is reported as 12000 nM, the IC50 [1, 4] is reported as 6.1 µg/mL and the MCC at 144 h [2] is reported as > 100 µg/mL.

With O=C(Cc1ccccc1)OC[C@H]1O[C@@H](n2cc(/C=C/Br)c(=O)[nH]c2=O)C[C@@H]1OC(=O)Cc1ccccc1 [Example 17, E-5-(2-Bromovinyl)-3',5'-di-0-phenylacetyl-2'-deoxyuridine] the IC50 [1, 5] was 3.9 µg/mL and 6.9 µM and the MCC at 144 h [2] was > 100 µg/mL.

For CCCCC(=O)n1c(=O)c(/C=C/Br)cn([C@H]2C[C@H](O)[C@@H](CO)O2)c1=O [Example 23, E-5-(2-Bromovinyl)-3-N-valeryl-2'-deoxyuridine], the IC50 [1, 3] was 620 nM, the IC50 [1, 4] was 0.26 µg/mL and the MCC at 144 h [2] was > 100 µg/mL.
